# According to patent US6545049B1, “Dimer-selective RXR modulators and methods for their use” (Ligand Pharmaceuticals Incorporated, priority 1995, dated 2003):
# “Also recorded” adds a separate entry of the source. Where two headings read alike, the source gives them in different places.
# Assays:
# RXRα [1] = target: T1, RXRα (Homo sapiens, UniProt P19793); assay: RXR binding, RXRα; details: -v- tritiated LGD1069 and tritiated 9-cis retinoic acid
# T1 sequence (P19793 1-462): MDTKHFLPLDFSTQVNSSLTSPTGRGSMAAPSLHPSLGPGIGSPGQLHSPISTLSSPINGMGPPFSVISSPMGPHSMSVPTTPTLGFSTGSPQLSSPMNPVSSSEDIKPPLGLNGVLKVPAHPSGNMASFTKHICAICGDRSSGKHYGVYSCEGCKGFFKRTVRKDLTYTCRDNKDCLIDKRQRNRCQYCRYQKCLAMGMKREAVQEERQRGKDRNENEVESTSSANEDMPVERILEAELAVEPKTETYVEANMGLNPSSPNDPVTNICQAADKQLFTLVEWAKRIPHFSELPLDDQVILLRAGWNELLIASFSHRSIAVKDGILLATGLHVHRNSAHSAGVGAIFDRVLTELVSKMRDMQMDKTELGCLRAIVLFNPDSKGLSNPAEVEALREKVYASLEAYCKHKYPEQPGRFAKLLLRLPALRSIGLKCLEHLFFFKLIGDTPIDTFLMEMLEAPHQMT
# Description: (§1) Non-specific binding was defined as that binding remaining in the presence of 500 nM of the appropriate unlabelled compound. At the end of the incubation period, bound from free ligand were separated. The amount of bound tritiated retinoids was determined by liquid scintillation counting of an aliquot (700 μL) of the supernatant fluid or the hydroxylapatite pellet.
# (§2) After correcting for non-specific binding, IC50 values were determined. […] The IC50 value was determined graphically from a log-logit plot of the data. The Kd values were determined by application of the Cheng-Prussof equation to the IC50 values, the labeled ligand concentration and the Kd of the labeled ligand.
# RXRβ [2] = target: T2, RXRβ (Mus musculus, UniProt P28704); assay: RXR binding, RXRβ; details: -v- tritiated LGD1069 and tritiated 9-cis retinoic acid
# T2 sequence (P28704 1-520): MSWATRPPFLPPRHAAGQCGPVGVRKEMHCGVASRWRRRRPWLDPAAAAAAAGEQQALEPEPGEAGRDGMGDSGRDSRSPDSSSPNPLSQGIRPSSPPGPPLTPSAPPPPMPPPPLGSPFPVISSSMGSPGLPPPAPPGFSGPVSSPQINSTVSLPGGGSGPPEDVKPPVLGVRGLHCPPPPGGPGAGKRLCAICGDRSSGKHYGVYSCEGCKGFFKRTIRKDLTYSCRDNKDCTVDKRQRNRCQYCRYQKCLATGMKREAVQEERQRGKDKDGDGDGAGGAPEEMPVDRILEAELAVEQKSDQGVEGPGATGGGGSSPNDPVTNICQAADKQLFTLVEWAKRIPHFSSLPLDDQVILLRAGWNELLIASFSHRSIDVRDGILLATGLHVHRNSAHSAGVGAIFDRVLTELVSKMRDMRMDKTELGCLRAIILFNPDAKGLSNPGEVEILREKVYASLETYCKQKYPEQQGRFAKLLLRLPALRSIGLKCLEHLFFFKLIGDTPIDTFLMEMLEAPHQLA
# Description: as §1, §2
# RXRγ [3] = target: T3, RXRγ (Mus musculus, UniProt P28705); assay: RXR binding, RXRγ; details: -v- tritiated LGD1069 and tritiated 9-cis retinoic acid
# T3 sequence (P28705 1-463): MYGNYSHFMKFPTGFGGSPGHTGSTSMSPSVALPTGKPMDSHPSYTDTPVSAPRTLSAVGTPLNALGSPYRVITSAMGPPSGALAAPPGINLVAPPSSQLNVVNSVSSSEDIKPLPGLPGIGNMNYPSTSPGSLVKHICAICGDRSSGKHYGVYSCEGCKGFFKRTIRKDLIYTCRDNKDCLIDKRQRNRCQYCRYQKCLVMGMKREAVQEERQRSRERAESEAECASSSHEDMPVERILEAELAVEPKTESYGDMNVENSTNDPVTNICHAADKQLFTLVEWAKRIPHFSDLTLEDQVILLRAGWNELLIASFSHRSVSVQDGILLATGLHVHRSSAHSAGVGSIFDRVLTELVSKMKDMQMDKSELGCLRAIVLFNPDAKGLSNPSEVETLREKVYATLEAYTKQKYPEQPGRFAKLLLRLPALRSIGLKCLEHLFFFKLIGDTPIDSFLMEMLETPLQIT
# Description: as §1, §2
# RXR:RXR homodimer = target: T4, RXR:RXR homodimer (Homo sapiens, UniProt P19793); assay: RXR homodimer co-transfection assay (FIG. 1); details: in the presence of known RXR activators (LGD1069, LG100268, 9-cis retinoic acid)
# T4 sequence (P19793 1-462): T1 sequence (P19793 1-462)
# RXRα [4] = target: T1, RXRα; assay: RXR homodimer co-transfection assay, antagonist mode, RXRα; details: read-out: RXRα Potency IC50; antagonist potency in the presence of the known RXR agonist LGD1069; CV-1 cells
# RXRβ [5] = target: T2, RXRβ; assay: RXR homodimer co-transfection assay, antagonist mode, RXRβ; details: read-out: RXRβ Potency IC50; antagonist potency in the presence of the known RXR agonist LGD1069; CV-1 cells
# RXRγ [6] = target: T3, RXRγ; assay: RXR homodimer co-transfection assay, antagonist mode, RXRγ; details: read-out: RXRγ Potency IC50; antagonist potency in the presence of the known RXR agonist LGD1069; CV-1 cells
# RXRα:PPARα heterodimer = target: T5, RXRα:PPARα heterodimer (Homo sapiens, UniProt P19793); assay: RXR heterodimer co-transfection assay (RXRα and PPARα, PPARα response element reporter); details: for Fold activation: normalized luciferase values at 10−5M divided by values with vehicle
# T5 sequence (P19793 1-462): T1 sequence (P19793 1-462)
# T5 sequence (Q07869 1-468 partner): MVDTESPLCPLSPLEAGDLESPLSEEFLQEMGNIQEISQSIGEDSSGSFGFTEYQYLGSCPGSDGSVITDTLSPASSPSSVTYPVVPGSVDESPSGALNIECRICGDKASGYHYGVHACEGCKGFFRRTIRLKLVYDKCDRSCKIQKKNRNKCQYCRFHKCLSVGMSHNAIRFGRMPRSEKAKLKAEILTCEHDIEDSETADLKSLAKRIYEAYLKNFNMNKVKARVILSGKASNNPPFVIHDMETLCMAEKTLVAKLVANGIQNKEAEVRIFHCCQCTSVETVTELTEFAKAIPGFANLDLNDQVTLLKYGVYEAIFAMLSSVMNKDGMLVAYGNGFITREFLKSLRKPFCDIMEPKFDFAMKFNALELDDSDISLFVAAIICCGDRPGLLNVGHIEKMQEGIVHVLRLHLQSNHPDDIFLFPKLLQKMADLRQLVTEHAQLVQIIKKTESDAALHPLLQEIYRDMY
# RXRα:RXRα homodimer = target: T6, RXRα:RXRα homodimer (Homo sapiens, UniProt P19793); assay: Gal4-receptor chimera transactivation assay, RXR homodimer; details: for Fold activation: CV-1 cells, 100 nM LG100268, LGD1069, n.e. = no effect; for Fold activation / Fold Repression: 500 nM Compounds 117, 122, 130, 1 mM Compound 131; for agonist activity on RXR homodimers in the GAL4 transfection assay (in words): compound alone; for antagonist activity on RXR homodimers in the GAL4 transfection assay (in words) / Fold Repression: in combination with either LGD1069 or LG100268
# T6 sequence (P19793 227-458 limits assumed): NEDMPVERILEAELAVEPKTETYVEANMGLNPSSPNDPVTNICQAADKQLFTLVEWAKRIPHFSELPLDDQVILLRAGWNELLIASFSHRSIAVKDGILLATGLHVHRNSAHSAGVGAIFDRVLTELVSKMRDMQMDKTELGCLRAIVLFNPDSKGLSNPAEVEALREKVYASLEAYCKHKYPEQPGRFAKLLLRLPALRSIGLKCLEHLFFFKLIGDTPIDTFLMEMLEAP
# Description: Briefly, CV-1 cells were transfected in 12 well multi-well plates using 0.1 μg of each receptor and 0.5 μg of reporter per well. Each well was also transfected with 0.5 μg of the β-Gal expression plasmid as an internal control for transfection efficiency. Total plasmid per well was 2 μg made up using the plasmid pGEM. […] Receptor ligand binding domains (LBDs) were fused in-frame downstream to the Gal4 cDNA to produce Gal4-receptor fusion proteins. To express only the receptor LBDs, the LBD was cloned directly downstream to the CMV promoter.
# Cells were then washed 2X with PBS and lysed using Promega lysis buffer and assayed for luciferase activity and β-galactosidase activity. All results were normalized against β-Gal. Each set was done in triplicates and each experiment was carried out at least 3 separate times with similar results.
# RXRα:RARα heterodimer = target: T7, RXRα:RARα heterodimer (Homo sapiens, UniProt P19793); assay: Gal4-receptor chimera transactivation assay, RXRα:RARα heterodimer; details: for effect on RXRα:RARα heterodimer in combination with TTNPB (in words): combined with the RXR:RAR activator TTNPB, data not shown; for agonist activity on RXRα:RARα heterodimers (in words): compound alone
# T7 sequence (P19793 227-458 limits assumed): T6 sequence (P19793 227-458 limits assumed)
# T7 sequence (P10276 183-417 partner limits assumed): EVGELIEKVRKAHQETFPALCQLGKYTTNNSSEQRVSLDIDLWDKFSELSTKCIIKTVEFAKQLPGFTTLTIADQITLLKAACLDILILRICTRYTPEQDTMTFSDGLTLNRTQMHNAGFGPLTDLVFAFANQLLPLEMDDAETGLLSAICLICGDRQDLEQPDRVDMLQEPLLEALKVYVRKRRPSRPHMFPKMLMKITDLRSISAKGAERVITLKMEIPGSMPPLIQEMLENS
# NB4 cells = assay: NB4 myeloid leukemic cell differentiation; assay type: cell-based; details: Compound 122 1 mM; TTNPB, 9-cis retinoic acid, LG100268 100 nM; FIG. 3
# Description: All points were performed in triplicate for each experiment and varied less than 20%. Each experiment was repeated at least three times with similar results.
Kd (RXRα [1]) [µM],Kd (RXRβ [2]) [µM],Kd (RXRγ [3]) [µM],antagonism of RXR homodimer transactivation (in words) (RXR:RXR homodimer),Fold activation (RXRα:PPARα heterodimer) [fold],melting point,Fold activation (RXRα:RXRα homodimer),agonist activity on RXR homodimers in the GAL4 transfection assay (in words) (RXRα:RXRα homodimer),antagonist activity on RXR homodimers in the GAL4 transfection assay (in words) (RXRα:RXRα homodimer),Fold Repression (RXRα:RXRα homodimer) [fold],"Fold Repression (RXRα:RARα heterodimer; CV-1 cells, 500 nM Compound 117, in combination with TTNPB) [fold]",effect on RXRα:RARα heterodimer in combination with TTNPB (in words) (RXRα:RARα heterodimer),agonist activity on RXRα:RARα heterodimers (in words) (RXRα:RARα heterodimer),EC50 (RXRα:PPARα heterodimer) [µM],Compound,IC50 (RXRα [4]) [µM],IC50 (RXRβ [5]) [µM],IC50 (RXRγ [6]) [µM],"EC50 (RXRα:PPARα heterodimer; read-out: EC50 (agonist potency), CV-1 cell transfected with both RXRα and PPARα) [µM]",differentiation of NB4 cells (in words) (NB4 cells)
0.003,0.017,0.017,function as antagonists,9,199 to 205 °C (dec.),n.e.,inactive,moderate antagonist,1.5,1.4,weak repressor,inactive,0.9,"CC1(C)CCC(C)(C)c2cc(C(=NO)c3ccc(C(=O)O)cc3)c(OCc3ccccc3)cc21 [Compound 117, cis-4-[(3-benzyloxy-5,6,7,8-tetrahydro-5,5,8,8-tetramethyl-2-naphthyl)carbonyl]benzoic acid oxime]",–,–,–,–,–
–,0.029,0.033,–,–,–,–,–,–,–,–,–,–,–,"CCCOc1cc2c(cc1\C(C)=C/C=C/C(C)=C/C(=O)O)C(C)(C)CCC2(C)C [Compound 122, (2E, 4E, 6Z)-7-[3-propoxy-5,5,8,8-tetramethyl-5,6,7,8-tetrahydro-2-naphthalen-2-yl]-3-methylocta-2,4,6-trienoic acid]",–,–,–,–,"stimulate NB4 cells to differentiate; also recorded: equally, if not more effective in promoting differentiation of NB4 cells"
0.14,0.105,0.107,function as antagonists,7,–,n.e.,inactive,weak antagonist,1.3,–,slight increase in activation,potent agonists,0.8,"CC1(C)CCC(C)(C)c2cc3c(cc21)CCC=C3Cc1ccc(C(=O)O)cc1 [Compound 131, 4-(3,4,5,6,7,8-hexahydro-5,5,8,8-tetramethyl-anthracen-1-ylmethyl)benzoic acid]",–,–,–,–,–
0.163,0.155,0.181,function as antagonists,5,173 to 175 °C,–,–,–,–,–,–,–,–,"CC1(C)CCC(C)(C)c2cc3c(cc21)CCCN3Cc1ccc(C(=O)O)cc1 [Compound 135, 4-(3,4,6,7,8,9-hexahydro-6,6,9,9-tetramethyl-2H-benzo[g]quinolin-1-ylmethyl)benzoic acid]",–,–,–,–,–
0.003,0.008,0.006,especially potent antagonist,–,–,–,–,–,–,–,–,–,–,"CCCCCCCOc1c(\C(C)=C/C=C/C(C)=C/C(=O)O)cc(C(C)C)cc1C(C)C [Compound 147, (2E, 4E, 6Z)-7-(3,5-diisopropyl-2-n-heptyloxyphenyl)-3-methylocta-2,4,6-trienoic acid]",–,–,–,–,–
–,–,–,–,–,–,–,–,–,–,–,–,–,–,"C/C(=C\c1ccc(C(=O)O)cc1)c1ccc2c(c1)C(C)(C)CCC2(C)C [TTNPB, (E)-4-[2-(5,6,7,8-tetrahydro-5,5,8,8-tetramethyl-2-naphthalenyl)-1-propenyl]benzoic acid]",–,–,–,–,stimulate NB4 cells to differentiate

Compound,Kd (RXRα [1]) [µM],Kd (RXRβ [2]) [µM],Kd (RXRγ [3]) [µM],antagonism of RXR homodimer transactivation (in words) (RXR:RXR homodimer),Fold activation (RXRα:PPARα heterodimer) [fold],melting point,Fold activation (RXRα:RXRα homodimer),agonist activity on RXR homodimers in the GAL4 transfection assay (in words) (RXRα:RXRα homodimer),antagonist activity on RXR homodimers in the GAL4 transfection assay (in words) (RXRα:RXRα homodimer),Fold Repression (RXRα:RXRα homodimer) [fold],"Fold Repression (RXRα:RARα heterodimer; CV-1 cells, 500 nM Compound 117, in combination with TTNPB) [fold]",effect on RXRα:RARα heterodimer in combination with TTNPB (in words) (RXRα:RARα heterodimer),agonist activity on RXRα:RARα heterodimers (in words) (RXRα:RARα heterodimer),EC50 (RXRα:PPARα heterodimer) [µM],IC50 (RXRα [4]) [µM],IC50 (RXRβ [5]) [µM],IC50 (RXRγ [6]) [µM],"EC50 (RXRα:PPARα heterodimer; read-out: EC50 (agonist potency), CV-1 cell transfected with both RXRα and PPARα) [µM]",differentiation of NB4 cells (in words) (NB4 cells)
"4-[(3-hexyloxy-5,6,7,8-tetrahydro-5,5,8,8-tetramethyl-2-naphthyl)carbonyl]benzoic acid oxime [Compound 114]",0.009,0.012,0.038,function as antagonists,4,–,–,–,–,–,–,–,–,–,0.126,0.197,0.206,0.2,–
